Measurements: US20260286288A1, “REGULATED CELLS EXPRESSING CYTOKINES” (William Marsh Rice University, priority 2023, published 2026)
Entries after “also recorded” stand apart in the source; their conditions may differ.

Legend:
[1] = system: RPE-mIL12-ks cells; assay: cells; conditions: 24 h, read-out: cell death
Experimental: (§2) Images of RPE-mIL 12-ks cells via the microscope 24 hours after 0 nM (left) or 10 nM AP1903 (right) administration. […] Cell viability measured after lysing encapsulated RPE-IL12-ks via cell counter 24 hours post administration (n=3).
(§3) FIG. 9A is series of two annotated photographs of two populations of cytokine-producing, kill switch-inducible cells, the first population (left) not having been exposed to small molecule kill switch inducer AP1903, and the second population (right) 24 hours after exposure to 10 nM AP1903. FIG. 9B is the administration of different concentrations of CID (AP1903) in mIL 12 ks cells in a 24-well plate for 24 hours. […] FIG. 9C is the validation of AP1903 treatment in inducing encapsulated cell death in mice. The inventors implant 50 mIL12 ks capsules in each mouse and administrate half of the mice with AP1903 right after implantation surgeries. Euthanize all the mice after 24 hours, retrieve capsules and lysis capsules for measuring cell viability.

[2] = system: RPE-mIL12-ks cells; conditions: in vitro and in vivo assays of FIGS. 9A-C
Experimental: as §2, §3

[3] = system: IL2-ks cells (cells expressing IL-2 and an inducible kill switch); assay: Bright field imaging of IL2-ks cells after AP1903; format: cell-based; conditions: 100 nM AP1903, 18 hours after administration
Source text: (§1) Images were acquired at 20× magnification.

[4] = system: encapsulated IL2-ks cells; assay: Viability of explanted IL2-ks capsules with or without intraperitoneal AP1903
[5] = system: Encapsulated IL2-ks cells; assay: mIL-2 ELISA of capsule supernatant of encapsulated IL2-ks cells after AP1903; format: cell-based; conditions: 10 nM, 100 nM or 1000 nM AP1903, alginate-encapsulated cells
Experimental: FIG. 3A and FIG. 3B are graphs of mIL-2 concentration (pg/mL) over time of four alginate-encapsulated, cytokine-producing, kill switch-inducible cell populations exposed to 0 nM, 10 nM, 100 nM, and 1000 nM of small molecule kill switch inducer AP1903.
as §1

[6] = system: encapsulated IL12-ks cells; assay: AP1903-induced encapsulated cell death of mIL12 ks capsules in mice; format: in vivo
Source text: FIG. 9A is an in vitro assay. […] FIG. 9B is an in vitro assay. […] FIG. 9C is an in vivo assay.

[7] = system: IL2-ks cells (cells expressing IL-2 and an inducible kill switch); assay: IL-2 ELISA of IL2-ks cell supernatant after AP1903; format: cell-based
Experimental: FIG. 2 is a graph of mIL-2 concentration (pg/mL) of the two cell populations of FIG. 1, the first population (right) not having been exposed to AP1903 and the second population (left) less than 24 hours after exposure to 100 nM AP1903.
FIG. 7A and FIG. 7B are graphs of IL-2 concentration (pg/mL) over time of four alginate-encapsulated, cytokine-producing, kill switch-inducible cell populations exposed to 0 nM, 10 nM, 100 nM, and 1000 nM of small molecule kill switch inducer AP1903.
as §1

Compound: CC[C@H](C(=O)N1CCCC[C@H]1C(=O)O[C@H](CCc1ccc(OC)c(OC)c1)c1cccc(OCC(=O)NCCNC(=O)COc2cccc([C@@H](CCc3ccc(OC)c(OC)c3)OC(=O)[C@@H]3CCCCN3C(=O)[C@@H](CC)c3cc(OC)c(OC)c(OC)c3)c2)c1)c1cc(OC)c(OC)c(OC)c1 [AP1903]
- cytotoxicity at 0.01 µM [1]: 99%
- induction of cell death in RPE-mIL 12-ks cells [2]: highly effective at inducing cell death
- cell death (bright field images) [3]: induced cell death
- time for encapsulated IL2-ks cells to respond to AP1903 ([4]; 0.4 mg/mL AP1903, healthy mice): less than 16 hours
- viability at 400 µg/mL ([4]; Mus musculus, ip, read-out: viability of explanted capsules (live)): < 10%
- mIL-2 concentration over time from capsule supernatant [5]: IL-2 production was reduced; also recorded: decreased mIL-2 production
- time for encapsulated IL12-ks cells to respond to AP1903 ([6]; 0.4 mg/mL AP1903, healthy mice, n=3): less than 24 hours
- cell viability of retrieved capsules ([6]; AP1903 right after implantation of 50 capsules, 24 hours, compared to control mice): decreased cell viability
- IL-2 concentration from cell supernatant ([7]; 10 nM, 100 nM or 1000 nM AP1903, 3 hours after administration): significant reduction in cytokine production
- mIL-2 concentration from cell supernatant ([7]; 100 nM AP1903, 18 hours after administration, n=3 wells): significant reduction in cytokine production; also recorded: decreased mIL-2 production
